Experimental findings from patent publication US20240246937A1 (MERCK SHARP & DOHME LLC, priority 2021, published 2024) are described below.

Usually EC50 stands for the concentration needed to bring the measured effect to its halfway point.

The target in the assay is recombinant IL4I1 (Homo sapiens (Human), UniProt Q96RQ9). Description: IL4I1 Enzymatic Assay (Amplex Red/HRP coupled fluorescence detection of H2O2). It counts as biochemical. Conditions: 240 min; recombinant IL4I1, four-hour pre-incubation with compound. The procedure, abridged: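 Recombinant human IL4I1 (1 nM final) pre-incubated 4 h with compound at ambient temperature in 50 mM Hepes pH 7.0, 0.005% Tween20. Started with 1 mM each Phe/Tyr/Trp plus Amplex Red/HRP; H2O2-derived resorufin fluorescence read after 120 min; EC50 from ten-point 1:3 titration, four-parameter fit.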
recombinant IL4I1, sequence (Q96RQ9 22-567): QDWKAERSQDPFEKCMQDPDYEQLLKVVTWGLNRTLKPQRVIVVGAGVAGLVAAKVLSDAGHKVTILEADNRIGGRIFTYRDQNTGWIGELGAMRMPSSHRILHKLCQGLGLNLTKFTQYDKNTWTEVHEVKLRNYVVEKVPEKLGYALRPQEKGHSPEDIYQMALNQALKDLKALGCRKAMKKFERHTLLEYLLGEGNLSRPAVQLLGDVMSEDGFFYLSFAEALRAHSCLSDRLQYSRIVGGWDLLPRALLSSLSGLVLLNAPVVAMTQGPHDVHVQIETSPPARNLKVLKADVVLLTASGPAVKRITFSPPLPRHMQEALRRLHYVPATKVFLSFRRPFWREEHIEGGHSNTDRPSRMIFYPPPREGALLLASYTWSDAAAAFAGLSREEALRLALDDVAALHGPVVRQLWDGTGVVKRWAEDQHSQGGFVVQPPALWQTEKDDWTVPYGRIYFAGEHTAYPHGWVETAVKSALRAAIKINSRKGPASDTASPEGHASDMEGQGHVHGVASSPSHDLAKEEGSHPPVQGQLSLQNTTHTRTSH
For `Cc1ccccc1-c1nnc(CN2CCN(C34CC(C3)C4)C(=O)C2=O)s1` [Example 84, 1-(bicyclo[1.1.1]pentan-1-yl)-4-((5-(o-tolyl)-1,3,4-thiadiazol-2-yl)methyl)piperazine-2,3-dione], the EC50 was 13 nM.

On to `O=c1c(=O)n(C23CC(C2)C3)ccn1Cc1ccc(-c2cccnc2)nn1` [Example 85, 1-(bicyclo[1.1.1]pentan-1-yl)-4-((6-(pyridin-3-yl)pyridazin-3-yl)methyl)-1,4-dihydropyrazine-2,3-dione], for which the EC50 worked out at 29 nM.

In the case of `O=c1c(=O)n(C23CC(C2)C3)ccn1Cc1ccc(-c2ccccn2)cn1` [Example 86, 1-([2,3′-bipyridin]-6′-ylmethyl)-4-(bicyclo[1.1.1]pentan-1-yl)-1,4-dihydropyrazine-2,3-dione], the EC50 was found to be 27 nM.

Consider `CC1(n2ccn(Cc3ccc(-c4ccccn4)nn3)c(=O)c2=O)CC1` [Example 87, 1-(1-methylcyclopropyl)-4-((6-(pyridin-2-yl)pyridazin-3-yl)methyl)-1,4-dihydropyrazine-2,3-dione], for which the EC50 was determined as 87 nM.

Regarding `CC1(n2ccn(Cc3ccc(-c4ccccn4)cn3)c(=O)c2=O)CC1` [Example 88, 1-([2,3′-bipyridin]-6′-ylmethyl)-4-(1-methylcyclopropyl)-1,4-dihydropyrazine-2,3-dione], the EC50 turned out to be 69 nM.

`N#CC1(n2ccn(Cc3ccc(-c4cccnc4)nn3)c(=O)c2=O)CC1` [Example 89, 1-(2,3-dioxo-4-((6-(pyridin-3-yl)pyridazin-3-yl)methyl)-3,4-dihydropyrazin-1(2H)-yl)cyclopropane-1-carbonitrile]: the EC50 was 32 nM.

For the molecule `CC1(n2ccn(Cc3ccc(-c4cccnc4)nn3)c(=O)c2=O)CC1` [Example 90, 1-(1-methylcyclopropyl)-4-((6-(pyridin-3-yl)pyridazin-3-yl)methyl)-1,4-dihydropyrazine-2,3-dione], the EC50 came out at 63 nM.

In the case of `N#CC1(n2ccn(Cc3ccc(-c4ccccn4)nn3)c(=O)c2=O)CC1` [Example 91, 1-(2,3-dioxo-4-((6-(pyridin-2-yl)pyridazin-3-yl)methyl)-3,4-dihydropyrazin-1(2H)-yl)cyclopropane-1-carbonitrile], the EC50 turned out to be 162 nM.

On to `N#CC1(n2ccn(Cc3ccc(-c4ccccn4)cn3)c(=O)c2=O)CC1` [Example 92, 1-(4-([2,3′-bipyridin]-6′-ylmethyl)-2,3-dioxo-3,4-dihydropyrazin-1(2H)-yl)cyclopropane-1-carbonitrile], for which the EC50 is 155 nM.

As for `O=c1c(=O)n(C23CC(C2)C3)ccn1Cc1ccc(-c2ccccn2)nn1` [Example 93, 1-(bicyclo[1.1.1]pentan-1-yl)-4-((6-(pyridin-2-yl)pyridazin-3-yl)methyl)-1,4-dihydropyrazine-2,3-dione], the EC50 is 31 nM.

Turning to `CC1(n2ccn(Cc3ccc(-c4cncs4)nn3)c(=O)c2=O)CC1` [Example 94, 1-(1-methylcyclopropyl)-4-((6-(thiazol-5-yl)pyridazin-3-yl)methyl)-1,4-dihydropyrazine-2,3-dione], the EC50 turned out to be 35 nM.

On to `O=c1c(=O)n(C23CC(C2)C3)ccn1Cc1ccc(-c2cncs2)nn1` [Example 95, 1-(bicyclo[1.1.1]pentan-1-yl)-4-((6-(thiazol-5-yl)pyridazin-3-yl)methyl)-1,4-dihydropyrazine-2,3-dione], for which the EC50 stood at 16 nM.

`O=C1C(=O)N([C@H]2C[C@H](c3ccccc3)C2)CCN1Cc1ccc(-c2ccccc2)nn1` [Example 96A, trans-1-(3-phenylcyclobutyl)-4-((6-phenylpyridazin-3-yl)methyl)piperazine-2,3-dione]: the EC50 was found to be 14 nM.

For `O=C1C(=O)N([C@H]2C[C@@H](c3ccccc3)C2)CCN1Cc1ccc(-c2ccccc2)nn1` [Example 96B, cis-1-(3-phenylcyclobutyl)-4-((6-phenylpyridazin-3-yl)methyl)piperazine-2,3-dione], the EC50 came to 8 nM.

In the case of `O=C1C(=O)N(C2CCCC2)CCN1Cc1ccc(-c2ccccc2)nc1` [Example 97, 1-cyclopentyl-4-((6-phenylpyridin-3-yl)methyl)piperazine-2,3-dione], the EC50 was found to be 5 nM.

For `O=C1C(=O)N(C2CCCC2)CCN1Cc1ccc(-c2ccccc2)cn1` [Example 98, 1-cyclopentyl-4-((5-phenylpyridin-2-yl)methyl)piperazine-2,3-dione], the concentration giving a half-maximal response (EC50) worked out at 12 nM.

`O=C1C(=O)N(C2CCCC2)CCN1Cc1ccc(-c2ccccc2)cc1F` [Example 100, 1-cyclopentyl-4-((3-fluoro-[1,1′-biphenyl]-4-yl)methyl)piperazine-2,3-dione]: the EC50 was determined as 8 nM.

As for `O=C1C(=O)N(C2CCCC2)CCN1Cc1ncc(-c2ccccc2)cc1F` [Example 101, 1-cyclopentyl-4-((3-fluoro-5-phenylpyridin-2-yl)methyl)piperazine-2,3-dione], the 50% effective concentration (EC50) was 8 nM.

As for `O=C1C(=O)N(C2CCCC2)CCN1Cc1cnc(-c2ccccc2)c(F)c1` [Example 102, 1-cyclopentyl-4-((5-fluoro-6-phenylpyridin-3-yl)methyl)piperazine-2,3-dione], the EC50 came out at 14 nM.

As to `O=C1C(=O)N(C2CCCC2)CCN1Cc1cnc(-c2ccccc2)nn1` [Example 103, 1-cyclopentyl-4-((3-phenyl-1,2,4-triazin-6-yl)methyl)piperazine-2,3-dione], the EC50 came out at 11 nM.

With `O=C1C(=O)N(C2CCCC2)CCN1Cc1cc(-c2ccccc2)on1` [Example 104, 1-cyclopentyl-4-((5-phenylisoxazol-3-yl)methyl)piperazine-2,3-dione], the EC50 turned out to be 4 nM.

`O=C1C(=O)N(C2CCC2)CCN1Cc1cc(-c2ccccc2)on1` [Example 105, 1-cyclobutyl-4-((5-phenylisoxazol-3-yl)methyl)piperazine-2,3-dione]: the EC50 worked out at 2 nM.

As for `O=C1C(=O)N(C2CCC2)CCN1Cc1ncc(-c2ccccc2)cc1F` [Example 106, 1-cyclobutyl-4-((3-fluoro-5-phenylpyridin-2-yl)methyl)piperazine-2,3-dione], the EC50 was found to be 7 nM.

For `O=C1C(=O)N(C2CCC2)CCN1Cc1cnc(-c2ccccc2)nc1` [Example 107, 1-cyclobutyl-4-((2-phenylpyrimidin-5-yl)methyl)piperazine-2,3-dione], the EC50 turned out to be 13 nM.

`CC(c1cnc(-c2ccccc2)cn1)N1CCN(C2CCC2)C(=O)C1=O` (centres unmarked) [Example 108, 1-cyclobutyl-4-(1-(5-phenylpyrazin-2-yl)ethyl)piperazine-2,3-dione]: the EC50 was 20 nM.

As to `O=C1C(=O)N(C2CCC2)CCN1Cc1ccc(-n2ccnn2)nc1` [Example 109, 1-((6-(1H-1,2,3-triazol-1-yl)pyridin-3-yl)methyl)-4-cyclobutylpiperazine-2,3-dione], the EC50 turned out to be 24 nM.

Consider `O=C1C(=O)N(C23CC(C2)C3)CCN1Cc1cnc(-c2ccccc2)nc1` [Example 110, 1-(bicyclo[1.1.1]pentan-1-yl)-4-((2-phenylpyrimidin-5-yl)methyl)piperazine-2,3-dione], for which the EC50 turned out to be 27 nM.

Consider `O=c1c(=O)n(C23CC(C2)C3)ccn1Cc1cnc(-c2ccccc2)nc1` [Example 111, 1-(bicyclo[1.1.1]pentan-1-yl)-4-((2-phenylpyrimidin-5-yl)methyl)-1,4-dihydropyrazine-2,3-dione], for which the EC50 stood at 8 nM.

In the case of `O=C1C(=O)N(C23CC(C2)C3)CCN1Cc1cnc(-c2ccccc2)cn1` [Example 112, 1-(bicyclo[1.1.1]pentan-1-yl)-4-((5-phenylpyrazin-2-yl)methyl)piperazine-2,3-dione], the EC50 worked out at 7 nM.

On to `O=C1C(=O)N(C2CCC2)CCN1Cc1ccc(-n2nccn2)nc1` [Example 113, 1-((6-(2H-1,2,3-triazol-2-yl)pyridin-3-yl)methyl)-4-cyclobutylpiperazine-2,3-dione], for which the EC50 stood at 15 nM.

For `O=C1C(=O)N(C23CC(C2)C3)CCN1Cc1ccc(-c2ccccc2)cn1` [Example 114, 1-(bicyclo[1.1.1]pentan-1-yl)-4-((5-phenylpyridin-2-yl)methyl)piperazine-2,3-dione], the EC50 was found to be 7 nM.

For the molecule `O=c1c(=O)n(C23CC(C2)C3)ccn1Cc1ccc(-c2ccccc2)cn1` [Example 115, 1-(bicyclo[1.1.1]pentan-1-yl)-4-((5-phenylpyridin-2-yl)methyl)-1,4-dihydropyrazine-2,3-dione], the EC50 amounted to 4 nM.

`O=C1C(=O)N(C23CC(C2)C3)CCN1Cc1ccc(-n2nccn2)nc1` [Example 116, 1-((6-(2H-1,2,3-triazol-2-yl)pyridin-3-yl)methyl)-4-(bicyclo[1.1.1]pentan-1-yl)piperazine-2,3-dione]: the EC50 is 17 nM.

Take `O=C1C(=O)N(C23CC(C2)C3)CCN1Cc1ccc(-n2ccnn2)nc1` [Example 117, 1-((6-(1H-1,2,3-triazol-1-yl)pyridin-3-yl)methyl)-4-(bicyclo[1.1.1]pentan-1-yl)piperazine-2,3-dione]: the EC50 turned out to be 14 nM.

On to `O=C1C(=O)N(C2CCC2)CCN1Cc1cnc(-c2ccccc2)cn1` [Example 118, 1-cyclobutyl-4-((5-phenylpyrazin-2-yl)methyl)piperazine-2,3-dione], for which the EC50 is 7 nM.

For the molecule `O=C1C(=O)N(C2CCCC2)CCN1CCc1cc(-c2ccccc2)on1` [Example 119, 1-cyclopentyl-4-(2-(5-phenylisoxazol-3-yl)ethyl)piperazine-2,3-dione], the EC50 came out at 4 nM.

For the molecule `O=c1c(=O)n(C23CC(C2)C3)ccn1Cc1nnc(-c2ccccc2)s1` [Example 120, 1-(bicyclo[1.1.1]pentan-1-yl)-4-((5-phenyl-1,3,4-thiadiazol-2-yl)methyl)-1,4-dihydropyrazine-2,3-dione], the EC50 was 3 nM.

As to `O=C1C(=O)N(C23CC(C2)C3)CCN1Cc1nnc(-c2ccccc2)s1` [Example 121, 1-(bicyclo[1.1.1]pentan-1-yl)-4-((5-phenyl-1,3,4-thiadiazol-2-yl)methyl)piperazine-2,3-dione], the EC50 was 7 nM.
